Experimental data reported in US20120231482A1, “METHOD, KIT OR DIAGNOSTIC FOR THE DETECTION OF REAGENTS WHICH INDUCE ALTERED CONTRACTILITY” (THE JOHNS HOPKINS UNIVERSITY, priority 2009, published 2012).

Columns and labels:
[1] = tested on: rat cardiac muscle; assay: Force and [Ca2+]i measurements in cardiac trabeculae; type: cell-based
Protocol: Force and [Ca^2+]i Measurements in Cardiac Trabeculae.
Rat hearts were exposed via midsternotomy after the animals were anesthetized with intraperitoneal injection of pentobarbital (100 mg/kg), and were then rapidly excised and aorta cannulated. The hearts were perfused retrogradely (˜15 ml/min) with high K^+ Krebs-Henseleit (H-K) solution equilibrated with 95% O2 and 5% CO2. Trabeculae were quickly dissected from the right ventricles of the hearts and mounted between a force transducer and a motor arm. The muscles were superfused with K-H solution at a rate of ˜10 ml/min and stimulated at 0.5 Hz. Force was measured using a force transducer system (SI, Germany) and expressed in mN/mm^2. Sarcomere length was measured by laser diffraction. Fura-2 potassium salt was microinjected iontophoretically into one cell and allowed to spread throughout the whole muscle (via gap junctions). The epifluorescence of fura-2 was measured by exciting at 380 and 340 nm. The fluorescent light was collected at 510 nm by a photomultiplier tube (R1527, Hamamatsu). [Ca^2+]i was given by (after subtraction of the autofluorescence): [Ca^2+]i=K′d(R-Rmin)/(Rmax-R), where R is the observed ratio of fluorescence (340/380), K′d is the apparent dissociation constant, Rmax is the ratio of 340 nm/380 nm at saturating [Ca^2+], and Rmin is the ratio of 340 nm/380 nm at zero [Ca^2+]. The values of K′d, Rmax, and Rmin were determined by in vivo calibrations. Tetanization of the trabecula was achieved by addition of ryanodine (1.0 μmol/L) and by increasing the stimulus rate to 10 Hz briefly (˜3 sec) to obtain steady-state force-[Ca^2+] relations. Different levels of tetanized force will be obtained by increasing [Ca^2+] in the perfusate (up to 20-25 mmol/L). The data will be fitted with the Hill equation: F=Fmax[Ca^2+]in/(K1/2n+[Ca^2+]in), where Fmax is the maximal force. K1/2 is [Ca^2+]i at half Fmax, and n is the Hill coefficient.
1-nitrosocyclohexylacetate (NCA) is a new and mechanistically unique HNO donor that has been recently synthesized.

[2] = target: T1, MLC1 (Rattus norvegicus, UniProt P02600); assay: 2D gel shift western blot of skeletal myofibrils; type: biochemical; conditions: skeletal samples
T1 construct: using 10 μg of skeletal or cardiac myofibrils; from tissue; host or cells: skeletal muscle myofibrils
T1 sequence (P02600 whole entry): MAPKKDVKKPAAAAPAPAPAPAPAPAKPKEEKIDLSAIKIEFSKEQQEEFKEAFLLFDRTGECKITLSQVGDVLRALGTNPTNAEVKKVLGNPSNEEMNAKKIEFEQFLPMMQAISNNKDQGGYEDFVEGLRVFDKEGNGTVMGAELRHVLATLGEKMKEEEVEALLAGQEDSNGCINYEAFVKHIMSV
Source text: FIG. 6. MLC1 Cys81 necessary for increase in Fmax induced by treatment with HNO donors. (a) Sequence alignment comparing isoforms of rat cardiac (SEQ ID NO:16) and skeletal MLC1 (SEQ ID NO:17) in the region surrounding cardiac Cys81. (b) Steady-state force-[Ca^2+]i relations in control (o) versus NCA-treated (•) from cardiac or skeletal trabeculae indicating loss of increase in maximum force with loss of Cys81 in skeletal isoform with NCA (n=5, each group). (c) 2D Gel shift assay (non-reduced, NR and reduced, DTT) using 10 μg of skeletal or cardiac myofibrils indicating loss of higher molecular weight forms of MLC1 in skeletal HNO treated preparations while maintaining higher molecular weight form of TM (n=3).
Gel shift assay. 10 μg of rat myofibrils/treatment were diluted to 0.5 μg/μl in HEN including 0.1% (w/v) SDS and exposed to a treatment for 20 min at 37° C. Samples were diluted to 0.1 ug/ul in 1×LSD sample buffer, treated with 0, 5 or 100 mM DTT and separated by SDS PAGE. Proteins were silver stained or transferred to nitrocellulose and immunoblotted with primary antibodies for tropomyosin sarcomeric (CH1, Sigma-Aldrich Co., St. Louis, Mo., USA), actin (AC-40, Sigma-Aldrich Co., St. Louis, Mo., USA), myosin light chain 1 (MLM527, Abcam, Cambridge, Mass., USA) or myosin heavy chain (3-48, Abcam, Cambridge, Mass., USA). […]

[3] = 20˜100 μmol/L, 0.5 mmol/L [Ca2+]o
[4] = NCA 100 μmol/L, isolated cardiac muscle
[5] = in the presence of NCA, varied external Ca2+

CC(=O)OC1(N=O)CCCCC1 [NCA, 1-nitrosocyclohexylacetate] was tested, and the diastolic force [1, 3] was “no changes”, the force development [1, 3] was “increases force development in a dose dependent manner” and the “Ca2+ transient” value [1, 4] was 0.39 ± 0.08 µmol/L. For the same molecule, the force [1, 4] was 32.3 ± 4.8 mN/mm², the “diastolic Ca2+” value ([1]; dose-response) was “increased only at high doses” and the “amplitude of intracellular Ca2+ transients” value [1, 5] was “not different from control”. The “systolic force at any given external Ca2+” value [1, 5] was “remained significantly higher”, the Force-frequency relationship ([1]; without rising [Ca2+]i) was “enhanced” and the “higher molecular weight forms of MLC1” value [2] was “absence of higher molecular weight forms of MLC1”.
